This is an account of results in paper PMC6225228, “Design, Synthesis and Evaluation of N-pyrazinylbenzamides as Potential Antimycobacterial Agents” (Molecules : A Journal of Synthetic Chemistry and Natural …, 2018).

Series [1] deals with Mycobacterium tuberculosis H37Rv (Mtb). As to conditions: cited from earlier work; for Amides MIC (value in parentheses): second value in parentheses.
The subject of the next series is Candida tropicalis 156. The series can be described thus: Antifungal microdilution broth, CT. The class given is cell-based. As to conditions: read-out: MIC CT. On the technique in general: Broth dilution looks for growth in wells or tubes with falling amounts of substance.
Series [2] has as its system Staphylococcus aureus H 5996/08 methicillin resistant. The series can be described thus: microbe, parasite or virus in culture. The class given is cell-based. Particulars: Staphylococcus aureus, MRSA, read-out: MIC MRSA.
In series [3] the test system is Trichophyton interdigitale 445. The series can be described thus: Antifungal microdilution broth, TI. The class given is cell-based. As to conditions: read-out: MIC TI.
The next series has as its system Candida glabrata 20/I. The series can be described thus: Antifungal microdilution broth, CG. The class given is cell-based. Particulars: Nakaseomyces glabratus, 20/I, read-out: MIC CG.
For series [4], the system named is Pseudomonas aeruginosa CCM 1961. The series can be described thus: Antibacterial microdilution broth, PA. As to conditions: Pseudomonas aeruginosa, read-out: MIC PA. The class given is cell-based.
For series [5], the system named is Candida albicans ATCC 44859. The series can be described thus: Antifungal microdilution broth, CA. As to conditions: Candida albicans, read-out: MIC CA. The class given is cell-based.
Series [6] concerns Escherichia coli CCM 4517. The series can be described thus: Antibacterial microdilution broth, EC. Particulars: Escherichia coli, read-out: MIC EC. The class given is cell-based.
In series [7] the test system is Staphylococcus aureus CCM 4516/08. The series can be described thus: Antibacterial microdilution broth, SA. The class given is cell-based. Particulars: Staphylococcus aureus.
For series [8], the system named is Lichtheimia corymbifera 272. The series can be described thus: Antifungal microdilution broth, LC. Format: cell-based. As to conditions: read-out: MIC LC.
In series [9] the test system is Aspergillus fumigatus 231. The series can be described thus: Antifungal microdilution broth, AF. Format: cell-based. As to conditions: read-out: MIC AF.
Series [10] concerns M. avium ssp. avium CNCTC My 80/72 (ATCC 15769). The series can be described thus: Antimycobacterial microdilution MABA, M. avium. Format: cell-based, Mycobacterium avium. As to conditions: for M. avium ATCC 15769 MIC: Middlebrook 7H9 with OADC, pH 6.6, MABA; for MIC: Mycobacterium avium, ATCC15769, pH 6.6, read-out: M. avium ATCC 15769 MIC.
For another series, the system named is Trichosporon asahii 1188. The series can be described thus: Antifungal microdilution broth, TA. The class given is cell-based. Particulars: read-out: MIC TA.
In series [11] the test system is Mycobacterium smegmatis CCM 4622 (ATCC 607). The series can be described thus: Antimycobacterial microdilution, M. smegmatis. The class given is cell-based. As to conditions: Mycolicibacterium smegmatis, read-out: M. smeg. ATCC 607 MIC.
For series [12], the system named is Enterococcus sp. J 14365/08. The series can be described thus: Antibacterial microdilution broth, EF. Format: cell-based. Particulars: Enterococcus, read-out: MIC EF.
The test system of the next series is Candida krusei E28. The series can be described thus: Antifungal microdilution broth, CK. Format: cell-based. Particulars: Pichia kudriavzevii, read-out: MIC CK.
Series [13] relates to M. kansasii CNCTC My 235/80 (ATCC 12478). The series can be described thus: Antimycobacterial microdilution MABA, M. kansasii. As to conditions: for MIC: Mycobacterium kansasii, ATCC12478, pH 6.6, read-out: M. kans. ATCC 12478 MIC, Middlebrook 7H9 with OADC, pH 6.6, MABA. The class given is cell-based, Mycobacterium kansasii.
For series [14], the system named is Mycobacterium tuberculosis H37Rv CNCTC My 331/88 (ATCC 27294). The series can be described thus: Antimycobacterial microdilution MABA, M. tuberculosis. The class given is cell-based. As to conditions: Mycobacterium tuberculosis, read-out: Mtb H37Rv ATCC 27294 MIC, Middlebrook 7H9 with OADC growth supplement, pH = 6.6, MABA.
Series [15] has as its system Staphylococcus epidermidis H 6966/08. The series can be described thus: Antibacterial microdilution broth, SE. The class given is cell-based. As to conditions: Staphylococcus epidermidis, read-out: MIC SE.
Setting [16] is: Šula's semisynthetic medium, pH = 5.6, turbidity, first value.
Where [17] appears, read: Šula's semisynthetic medium, pH = 5.6, turbidity.
[18] abbreviates: Middlebrook 7H9, pH = 6.6, MABA.
The mark [19] stands for this setting: Trichophyton interdigitale, 445, 72 h.
Where [20] appears, read: Trichophyton interdigitale, 445, 120 h.
[21] abbreviates: CCM4516, 24 h, read-out: MIC SA, 24 h.
Where [22] appears, read: CCM4516, 48 h, read-out: MIC SA, 48 h.
Where [23] appears, read: Lichtheimia corymbifera, 272, 24 h.
The mark [24] stands for this setting: Lichtheimia corymbifera, 272, 48 h.
The mark [25] stands for this setting: Aspergillus fumigatus, 231, 24 h.
Setting [26] is: Aspergillus fumigatus, 231, 48 h.
[27] abbreviates: Trichosporon asahii, 1188, 24 h.
Setting [28] is: Trichosporon asahii, 1188, 48 h.

In brackets after ≈: the same amount, converted by molar mass. Where two headings read alike, the source gives them in different places. Marks after values point to notes of the source that are not given here.

With `O=C(Nc1cccc(C(F)(F)F)c1)c1cnc(Cl)cn1` [Amide R1=5-Cl R2=3-CF3], the “Amides MIC” value in series [1] (setting [16]) is 3.13 µg/mL. Further, in [1] (setting [17]), the “Amides MIC (value in parentheses)” value is 6.25 µg/mL.

`O=C(Nc1ccccc1Cl)c1cncc(Cl)n1` [Amide R1=6-Cl R2=2-Cl]: the “Amides MIC” value in [1] (Šula's semisynthetic medium, pH = 5.6, MABA) was 100 ^d [34] μg/mL.

As for `COc1ccc(NC(=O)c2cnccn2)cc1` [Amide R1=H R2=4-OCH3], in series [1] (setting [18]), the “Amides MIC” value is >100 ^b [27] μg/mL.

`COc1cccc(NC(=O)c2cnccn2)c1` [Amide R1=H R2=3-OCH3]: the “Amides MIC” value in series [1] (setting [18]) was >100 ^b [27] μg/mL.

For `COc1ccccc1NC(=O)c1cnccn1` [Amide R1=H R2=2-OCH3], in [1] (setting [18]), the “Amides MIC” value is >100 ^b [27] μg/mL.

Regarding `O=C(Nc1cccc(O)c1)c1cnc(Cl)cn1` [Amide R1=5-Cl R2=3-OH], in series [1] (setting [16]), the “Amides MIC” value is 6.25 ^c [18] μg/mL.

Turning to `O=C(Nc1cccc(Cl)c1)c1cnc(Cl)cn1` [Amide R1=5-Cl R2=3-Cl], the “Amides MIC” value in series [1] (setting [16]) was 6.25 µg/mL. Moreover, the “Amides MIC (value in parentheses)” value in series [1] (setting [17]) is 3.13 µg/mL.

With `O=C(Nc1ccc(O)cc1)c1cnc(Cl)cn1` [Amide R1=5-Cl R2=4-OH], in series [1] (setting [16]), the “Amides MIC” value was 3.13 µg/mL. In series [1] (setting [17]), the “Amides MIC (value in parentheses)” value is 12.5 µg/mL.

For `O=C(Nc1cnccn1)c1ccc(Cl)cc1` [Compound 1l], the melting point (as a rule, the temperature, or range, at which the solid turns liquid) was in the range of 182.6 to 184.3 °C. For the same molecule, the MIC in the series on Candida tropicalis 156 (Candida tropicalis, 156, 24 h) is more than 125 µM. Further, the MIC in the series with Candida tropicalis 156 (Candida tropicalis, 156, 48 h) is more than 125 µM. Moreover, the MIC in [2] (24 h) was more than 125 µM. For the same molecule, the MIC in [2] (48 h) was more than 125 µM. The MIC in series [3] (setting [19]) is more than 125 µM. The MIC in series [3] (setting [20]) was more than 125 µM. For the same molecule, in the series with Candida glabrata 20/I (24 h), the MIC was more than 125 µM. The MIC in the series on Candida glabrata 20/I (48 h) is more than 125 µM. Moreover, the MIC in series [4] (CCM1961, 72 h) is more than 125 µM. In addition, in [4] (CCM1961, 120 h), the MIC is more than 125 µM. The MIC in series [5] (ATCC44859, 24 h) is more than 125 µM. Also, the MIC in series [5] (ATCC44859, 48 h) is more than 125 µM. For the same molecule, the MIC in series [6] (CCM4517, 24 h) is more than 125 µM. The MIC in series [6] (CCM4517, 48 h) was more than 125 µM. For the same molecule, the MIC in series [7] (setting [21]) was more than 125 µM. The MIC in [7] (setting [22]) is more than 125 µM. Further, in [8] (setting [23]), the MIC is more than 125 µM. The MIC in series [8] (setting [24]) was more than 125 µM. Besides, the MIC in series [9] (setting [25]) was more than 125 µM. Further, in [9] (setting [26]), the MIC was more than 125 µM. For the same molecule, in series [10], the “M. avium ATCC 15769 MIC” value is listed as more than 100 µg/mL and the MIC is more than 100 µg/mL. Further, in the series with Trichosporon asahii 1188 (setting [27]), the MIC is more than 125 µM. Further, the MIC in the series on Trichosporon asahii 1188 (setting [28]) is more than 125 µM. Also, the MIC in [11] is not below 500 µg/mL. In addition, the MIC in series [12] (SP.J14365/08, 24 h) is more than 125 µM. Also, in series [12] (SP.J14365/08, 48 h), the MIC is more than 125 µM. For the same molecule, the MIC in the series on Candida krusei E28 (E28, 24 h) is more than 125 µM. For the same molecule, the MIC with Candida krusei E28 (E28, 48 h) was more than 125 µM. Moreover, in [13], the MIC was 50 µg/mL (≈ 214 µM). The MIC in [14] amounted to 50 µg/mL (≈ 214 µM). For the same molecule, the MIC in series [15] (H6966/08, 24 h) was more than 125 µM. Further, the MIC in series [15] (H6966/08, 48 h) is more than 125 µM.

`O=C(Nc1cnccn1)c1ccccc1` [Compound 1a] had a melting point of 171.2 to 172 °C. Besides, the MIC in the series with Candida tropicalis 156 (Candida tropicalis, 156, 24 h) is more than 500 µM. For the same molecule, in the series with Candida tropicalis 156 (Candida tropicalis, 156, 48 h), the MIC is more than 500 µM. Further, the MIC in [2] (24 h) is more than 500 µM. In series [2] (48 h), the MIC was more than 500 µM. In [3] (setting [19]), the MIC was more than 500 µM. In addition, the MIC in [3] (setting [20]) is more than 500 µM. Besides, the MIC in the series with Candida glabrata 20/I (24 h) is more than 500 µM. In addition, in the series on Candida glabrata 20/I (48 h), the MIC was more than 500 µM. Also, the MIC in series [4] (CCM1961, 72 h) is more than 500 µM. Also, the MIC in [4] (CCM1961, 120 h) was more than 500 µM. In [5] (ATCC44859, 24 h), the MIC was found to be 500 µM (≈ 99.6 µg/mL). In series [5] (ATCC44859, 48 h), the MIC is more than 500 µM. Also, the MIC in series [6] (CCM4517, 24 h) was more than 500 µM. The MIC in series [6] (CCM4517, 48 h) is more than 500 µM. Moreover, in series [7] (setting [21]), the MIC is more than 500 µM. For the same molecule, the MIC in series [7] (setting [22]) is more than 500 µM. The MIC in series [8] (setting [23]) is more than 500 µM. For the same molecule, the MIC in series [8] (setting [24]) was more than 500 µM. Moreover, in series [9] (setting [25]), the MIC was more than 500 µM. In addition, the MIC in [9] (setting [26]) was more than 500 µM. Also, in series [10], the “M. avium ATCC 15769 MIC” value is recorded as more than 100 µg/mL and the MIC was more than 100 µg/mL. The MIC in the series with Trichosporon asahii 1188 (setting [27]) is more than 500 µM. In the series with Trichosporon asahii 1188 (setting [28]), the MIC is more than 500 µM. In [11], the MIC is not below 500 µg/mL. Also, in series [12] (SP.J14365/08, 24 h), the MIC is more than 500 µM. Also, the MIC in series [12] (SP.J14365/08, 48 h) is more than 500 µM. For the same molecule, the MIC in the series on Candida krusei E28 (E28, 24 h) was more than 500 µM. For the same molecule, the MIC in the series on Candida krusei E28 (E28, 48 h) was more than 500 µM. The “M. kans. ATCC 12478 MIC” value in [13] (Middlebrook 7H9 with OADC, pH 6.6, MABA) is given as more than 100 µg/mL. In addition, the MIC in series [13] was more than 100 µg/mL. Also, the MIC in [14] turned out to be 100 µg/mL (≈ 502 µM). In addition, the MIC in series [15] (H6966/08, 24 h) was more than 500 µM. Besides, the MIC in [15] (H6966/08, 48 h) was more than 500 µM.
